# In ChEMBL document CHEMBL1649173, “Single-dose escalation and multiple-dose safety, tolerability, and pharmacokinetics of IDX899, a candidate human immunodeficiency virus type 1 nonnucleoside reverse transcriptase inhibitor, in healthy subjects” (Antimicrob Agents Chemother, 2009):
# Columns and labels:
# [1] = Apparent total plasma clearance in fed state healthy human at 1200 mg, po administered as single dose 0; format: ADME, organism-based
# [2] = AUC (0 to infinity) in fasted state healthy human at 100 mg, po administered as single dose; format: ADME, organism-based; set-up: dose 100 mg, time infinity, route oral; conditions: plasma
# [3] = Trough plasma concentration in healthy human at 400 mg, po bid after 1 day; format: ADME, organism-based; conditions: read-out: Cmin
# [4] = Apparent total volume of distribution in fed state female healthy human at 400 mg, po administered as single dose; format: ADME, organism-based; conditions: in vivo, read-out: Vz/F
# [5] = AUC (0 to infinity) in healthy human at 800 mg, po qd after 7 days; format: ADME, organism-based; set-up: dose 800 mg, route oral, time infinity; conditions: plasma
# [6] = Apparent total volume of distribution in fed state healthy human at 200 mg, po administered as single dose; format: ADME, organism-based; conditions: in vivo, read-out: Vz/F
# [7] = Tmax in fasted state healthy human at 400 mg, po administered as single dose; format: ADME, organism-based; conditions: in vivo
# [8] = Tmax in fed state female healthy human at 400 mg, po administered as single dose; format: ADME, organism-based; conditions: in vivo
# [9] = Half life in fed state female healthy human at 400 mg, po administered as single dose; format: ADME, organism-based; conditions: in vivo
# [10] = Cmax in fed state healthy human at 200 mg, po administered as single dose; format: ADME, organism-based; set-up: dose 200 mg, route oral; conditions: in vivo
# [11] = Cmax in fed state female healthy human at 400 mg, po administered as single dose; format: ADME, organism-based; set-up: dose 400 mg, route oral; conditions: in vivo
# [12] = Plasma concentration in fasted state healthy human at 50 mg, po administered as single dose after 24 hrs; format: ADME, organism-based
# [13] = Half life in fed state healthy human at 200 mg, po administered as single dose; format: ADME, organism-based; conditions: in vivo
# [14] = Apparent total volume of distribution in fasted state healthy human at 400 mg, po administered as single dose; format: ADME, organism-based; conditions: in vivo, read-out: Vz/F
# Homo sapiens [15] = assay: Toxicity in healthy human assessed as occurrence of pollakiuria at 50 to 1200 mg, po administered as single dose; format: organism-based; conditions: in vivo
# [16] = Apparent total plasma clearance in fasted state healthy human at 100 mg, po administered as single dose; format: ADME, organism-based
# [17] = Apparent total volume of distribution in healthy human at 400 mg, po bid after 7 days; format: ADME, organism-based; conditions: in vivo, read-out: Vz/F
# [18] = Tmax in healthy human at 800 mg, po qd after 7 days; format: ADME, organism-based; conditions: in vivo
# [19] = Tmax in healthy human at 400 mg, po bid after 7 days; format: ADME, organism-based; conditions: in vivo
# [20] = Apparent total plasma clearance in fed state female healthy human at 400 mg, po administered as single dose; format: ADME, organism-based
# [21] = AUC (0 to infinity) in fasted state healthy human at 50 mg, po administered as single dose; format: ADME, organism-based; set-up: dose 50 mg, route oral, time infinity; conditions: plasma
# [22] = Apparent total plasma clearance in healthy human at 800 mg, po qd after 1 day; format: ADME, organism-based
# [23] = Half life in fed state healthy human at 800 mg, po administered as single dose; format: ADME, organism-based; conditions: in vivo
# [24] = AUC (0 to infinity) in fed state healthy human at 800 mg, po administered as single dose; format: ADME, organism-based; set-up: dose 800 mg, time infinity, route oral; conditions: plasma
# [25] = Plasma concentration in fasted state healthy human at 400 mg, po administered as single dose after 24 hrs; format: ADME, organism-based
# Homo sapiens [26] = assay: Toxicity in healthy human assessed as incidence of pollakiuria at 400 mg, po bid and 800 mg, po qd for 7 days; format: organism-based; conditions: in vivo, 168 h
# [27] = Tmax in fasted state healthy human at 100 mg, po administered as single dose; format: ADME, organism-based; conditions: in vivo
# [28] = Tmax in fed state healthy human at 1200 mg, po administered as single dose; format: ADME, organism-based; conditions: in vivo
# [29] = Apparent total plasma clearance in healthy human at 400 mg, po bid after 7 days; format: ADME, organism-based
# [30] = Tmax in healthy human at 800 mg, po qd after 1 day; format: ADME, organism-based; conditions: in vivo
# [31] = Tmax in fasted state healthy human at 50 mg, po administered as single dose; format: ADME, organism-based; conditions: in vivo
# Homo sapiens [32] = assay: Toxicity in healthy human assessed as incidence of nausea at 400 mg, po bid and 800 mg, po qd for 7 days; format: organism-based; conditions: in vivo, 168 h
# [33] = Apparent total volume of distribution in fed state healthy human at 1200 mg, po administered as single dose; format: ADME, organism-based; conditions: in vivo, read-out: Vz/F
# [34] = Plasma concentration in fasted state healthy human at 200 mg, po administered as single dose after 24 hrs; format: ADME, organism-based
# [35] = Tmax in fasted state healthy human at 200 mg, po administered as single dose; format: ADME, organism-based; conditions: in vivo
# Homo sapiens [36] = assay: Toxicity in healthy human assessed as incidence of abnormal dreams at 400 mg, po bid and 800 mg, po qd for 7 days; format: organism-based; conditions: in vivo, 168 h
# [37] = Cmax in fed state healthy human at 800 mg, po administered as single dose; format: ADME, organism-based; set-up: dose 800 mg, route oral; conditions: in vivo
# [38] = AUC (0 to infinity) in fasted state healthy human at 200 mg, po administered as single dose; format: ADME, organism-based; set-up: dose 200 mg, time infinity, route oral; conditions: plasma
# [39] = Half life in healthy human at 400 mg, po bid after 7 days; format: ADME, organism-based; conditions: in vivo
# Homo sapiens [40] = assay: Toxicity in healthy human assessed as occurrence of nausea at 50 to 1200 mg, po administered as single dose; format: organism-based; conditions: in vivo
# [41] = Apparent total volume of distribution in fasted state healthy human at 50 mg, po administered as single dose; format: ADME, organism-based; conditions: in vivo, read-out: Vz/F
# [42] = Cmax in healthy human at 400 mg, po bid after 7 days; format: ADME, organism-based; set-up: dose 400 mg, route oral; conditions: in vivo
# [43] = Plasma concentration in fed state female healthy human at 400 mg, po administered as single dose after 24 hrs; format: ADME, organism-based
# [44] = Half life in healthy human at 800 mg, po qd after 7 days; format: ADME, organism-based; conditions: in vivo
# [45] = Half life in fed state healthy human at 400 mg, po administered as single dose; format: ADME, organism-based; conditions: in vivo
# Homo sapiens [46] = assay: Toxicity in healthy human assessed as incidence of dizziness at 400 mg, po bid and 800 mg, po qd for 7 days; format: organism-based; conditions: in vivo, 168 h
# [47] = Apparent total volume of distribution in fasted state healthy human at 200 mg, po administered as single dose; format: ADME, organism-based; conditions: in vivo, read-out: Vz/F
# [48] = Tmax in fed state healthy human at 800 mg, po administered as single dose; format: ADME, organism-based; conditions: in vivo
# [49] = Oral bioavailability in human; format: ADME, organism-based; conditions: in vivo
# [50] = Apparent total plasma clearance in fed state healthy human at 400 mg, po administered as single dose; format: ADME, organism-based
structure (smiles),measurement,setting,value
COP(=O)(c1cc(C)cc(/C=C/C#N)c1)c1c(C(N)=O)[nH]c2ccc(Cl)cc12 (stereo not given),CL/F,[1],197 mL/min
same,AUC(0-inf),[2],15800 ng·h/mL
same,concentration at 24 h,[3],800 ng/mL
same,Vd/F,[4],329 L
same,AUC(0-inf),[5],54600 ng·h/mL
same,Vd/F,[6],201 L
same,Tmax,[7],1.8 h
same,Tmax,[8],5 h
same,half-life,[9],13.9 h
same,Cmax,[10],1300 ng/mL
same,Cmax,[11],1900 ng/mL
same,concentration at 24 h,[12],50 ng/mL
same,half-life,[13],9.5 h
same,Vd/F,[14],606 L
same,Activity,Homo sapiens [15],0%
same,CL/F,[16],118 mL/min
same,Vd/F,[17],236 L
same,Tmax,[18],4 h
same,Tmax,[19],4 h
same,CL/F,[20],268 mL/min
same,AUC(0-inf),[21],8800 ng·h/mL
same,CL/F,[22],252 mL/min
same,half-life,[23],11.5 h
same,AUC(0-inf),[24],47200 ng·h/mL
same,concentration at 24 h,[25],160 ng/mL
same,Activity,Homo sapiens [26],12.5%
same,Tmax,[27],1.5 h
same,Tmax,[28],10.1 h
same,CL/F,[29],268 mL/min
same,Tmax,[30],4 h
same,Tmax,[31],1.5 h
same,Activity,Homo sapiens [32],0%
same,Vd/F,[33],134 L
same,concentration at 24 h,[34],70 ng/mL
same,Tmax,[35],1.5 h
same,Activity,Homo sapiens [36],6.3%
same,Cmax,[37],3000 ng/mL
same,AUC(0-inf),[38],7100 ng·h/mL
same,half-life,[39],12.3 h
same,Activity,Homo sapiens [40],4.1%
same,Vd/F,[41],53.3 L
same,Cmax,[42],4000 ng/mL
same,concentration at 24 h,[43],290 ng/mL
same,half-life,[44],13.6 h
same,half-life,[45],9.8 h
same,Activity,Homo sapiens [46],0%
same,Vd/F,[47],555 L
same,Tmax,[48],6 h
same,bioavailability,[49],61%
same,CL/F,[50],215 mL/min
